Like-named read-outs stand apart in the source and are kept apart here. Marks after values point to notes of the source that are not given here.
Experiments:
[1] = format: in vivo, rat; settings: stigmasterol 200 mg/kg qd plus CDCA 180 mg/kg qd oral, 14 days
Oct2 = format: in vivo, rat; settings: stigmasterol 200 mg/kg qd plus CDCA 180 mg/kg qd oral, 14 days
FXR [2] = molecular target: T1, FXR (Homo sapiens, UniProt Q96RI1); format: cell-based; settings: HepG2 cell
T1 sequence (Q96RI1 1-486): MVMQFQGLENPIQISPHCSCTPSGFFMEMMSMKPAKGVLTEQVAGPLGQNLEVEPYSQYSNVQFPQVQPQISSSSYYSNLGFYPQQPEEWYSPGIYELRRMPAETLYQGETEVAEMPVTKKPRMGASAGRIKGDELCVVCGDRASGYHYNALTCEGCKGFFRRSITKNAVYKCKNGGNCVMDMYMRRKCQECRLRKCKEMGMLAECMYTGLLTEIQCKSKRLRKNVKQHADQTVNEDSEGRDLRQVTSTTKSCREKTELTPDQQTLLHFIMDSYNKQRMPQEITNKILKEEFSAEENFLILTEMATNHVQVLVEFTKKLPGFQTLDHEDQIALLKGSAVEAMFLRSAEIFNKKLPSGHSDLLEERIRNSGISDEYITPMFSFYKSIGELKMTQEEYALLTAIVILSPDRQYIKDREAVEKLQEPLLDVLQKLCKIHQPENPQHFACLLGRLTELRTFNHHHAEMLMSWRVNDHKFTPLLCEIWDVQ

OCT2 protein [3] = assay: OCT2 protein expression in Caco-2 cells; format: cell-based, human; settings: 48 h; for Expressions of OCT2 protein, 5 bile salts tested: CDCA 100, CA 100, DCA 50, HDCA 100, GCA 100 μmol/L; for Expressions of OCT2 protein by FXR agonists: CDCA 100, bilirubin 50, GW4064 1 μmol/L
OCT1 protein [4] = assay: OCT1 protein expression in HepG2 cells; format: cell-based, human; settings: for Concentration-dependent effect on expressions of OCT1 protein: 48 h, CDCA 25, 50, 100 μmol/L, bilirubin 1, 10, 50 μmol/L
Oct1 protein [5] = assay: Oct1 protein expression in primarily cultured rat hepatocytes; format: cell-based; settings: for Expressions of Oct1 protein: CDCA, bilirubin or GW4064
Mate1 = assay: Renal Mate1 protein expression in treated rats; format: in vivo, rat; settings: 14 days: CDCA 180 mg/kg qd oral
Oct2 protein [6] = assay: Oct2 protein expression in primarily cultured rat hepatocytes; format: cell-based; settings: for Expressions of Oct2 protein: CDCA, bilirubin or GW4064
OCT2 protein [7] = assay: OCT2 protein expression in HK-2 cells; format: cell-based, human; settings: 48 h; for Expressions of OCT2 protein by FXR agonists: CDCA 100, bilirubin 50, GW4064 1 μmol/L
Oct1 = Oct1 (Rattus norvegicus, UniProt Q63089); assay: in vitro; settings: probe metformin (100 μmol/L)
rat kidney slices = assay: Uptake of metformin by precision-cut kidney slices; format: in vitro ADME; settings: metformin 50 μg/mL, 15 min, 37 °C; slices from BDL rats
[8] = oral metformin 40 mg/kg
FXR protein = FXR protein expression in HK-2 cells; format: cell-based, human
FXR [9] = molecular target: T1, FXR; format: cell-based; settings: HK-2 cells
Oct3 = molecular target: T2, Oct3 (Rattus norvegicus, UniProt O88446); settings: estradiol 1 μmol/L with metformin 50 μg/mL; Sham rats
T2 sequence (O88446 1-551): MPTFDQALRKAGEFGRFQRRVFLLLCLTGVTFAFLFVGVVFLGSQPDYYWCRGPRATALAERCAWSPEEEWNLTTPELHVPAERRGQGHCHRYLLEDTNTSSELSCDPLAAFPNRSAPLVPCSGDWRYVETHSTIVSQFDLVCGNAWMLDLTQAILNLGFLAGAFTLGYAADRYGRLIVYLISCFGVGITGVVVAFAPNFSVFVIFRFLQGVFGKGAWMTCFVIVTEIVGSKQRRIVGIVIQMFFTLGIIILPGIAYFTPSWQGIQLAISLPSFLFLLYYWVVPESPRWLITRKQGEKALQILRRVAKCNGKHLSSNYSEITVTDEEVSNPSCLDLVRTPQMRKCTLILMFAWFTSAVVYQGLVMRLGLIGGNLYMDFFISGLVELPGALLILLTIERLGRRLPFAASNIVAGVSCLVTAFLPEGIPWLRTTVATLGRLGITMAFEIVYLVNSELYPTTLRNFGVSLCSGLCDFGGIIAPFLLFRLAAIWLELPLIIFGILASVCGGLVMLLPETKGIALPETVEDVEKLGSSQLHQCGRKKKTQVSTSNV

Oct2/3 [10] = settings: Sham rats
Oct2/3 [11] = molecular target: T3, Oct2/3 (Rattus norvegicus, UniProt Q9R0W2); settings: corticosterone 5 mg/kg ip, normal rats; iv metformin 10 mg/kg
T3 sequence (Q9R0W2 1-555): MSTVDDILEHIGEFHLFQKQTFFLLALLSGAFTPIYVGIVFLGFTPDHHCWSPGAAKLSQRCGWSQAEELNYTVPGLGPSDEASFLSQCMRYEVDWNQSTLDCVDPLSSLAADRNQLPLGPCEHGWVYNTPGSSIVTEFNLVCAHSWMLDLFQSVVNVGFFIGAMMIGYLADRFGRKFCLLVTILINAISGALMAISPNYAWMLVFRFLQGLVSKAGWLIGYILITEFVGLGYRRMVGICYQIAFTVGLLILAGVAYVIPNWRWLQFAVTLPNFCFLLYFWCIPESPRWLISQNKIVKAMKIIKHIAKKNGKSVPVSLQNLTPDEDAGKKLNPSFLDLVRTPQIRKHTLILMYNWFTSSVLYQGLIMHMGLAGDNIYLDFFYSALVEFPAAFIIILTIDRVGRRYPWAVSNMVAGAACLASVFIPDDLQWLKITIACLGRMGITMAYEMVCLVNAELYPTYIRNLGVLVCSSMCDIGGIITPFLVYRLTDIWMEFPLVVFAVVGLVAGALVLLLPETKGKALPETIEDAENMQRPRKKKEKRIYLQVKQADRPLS

[12] = thiamine 20 μg/mL perfusion
[13] = endogenous thiamine; BDL rats
[14] = CON rats of CDCA study (Table S5)

Chain of Oct1 (Q63089 whole entry): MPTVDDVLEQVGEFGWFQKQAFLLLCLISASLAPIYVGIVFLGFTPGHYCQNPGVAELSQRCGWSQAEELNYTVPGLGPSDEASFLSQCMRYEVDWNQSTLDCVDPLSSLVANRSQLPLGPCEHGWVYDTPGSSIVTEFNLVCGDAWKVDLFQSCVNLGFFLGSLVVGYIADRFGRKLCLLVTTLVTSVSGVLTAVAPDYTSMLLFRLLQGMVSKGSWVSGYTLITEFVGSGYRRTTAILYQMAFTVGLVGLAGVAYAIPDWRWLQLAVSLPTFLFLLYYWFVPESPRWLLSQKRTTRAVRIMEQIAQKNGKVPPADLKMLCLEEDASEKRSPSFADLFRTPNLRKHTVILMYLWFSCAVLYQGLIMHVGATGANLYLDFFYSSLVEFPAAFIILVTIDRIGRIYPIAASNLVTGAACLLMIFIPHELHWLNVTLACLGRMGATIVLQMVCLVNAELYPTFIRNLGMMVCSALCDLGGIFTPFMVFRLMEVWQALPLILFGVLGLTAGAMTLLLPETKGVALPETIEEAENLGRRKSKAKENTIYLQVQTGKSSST

## CC[C@H](/C=C/[C@@H](C)[C@H]1CC[C@H]2[C@@H]3CC=C4C[C@@H](O)CC[C@]4(C)[C@H]3CC[C@]12C)C(C)C [stigmasterol]
[1]
  Effect on CDCA-induced increase in levels of blood thiamine: attenuated
Oct2
  Effect on the increased expressions of intestinal Oct2 protein by CDCA: attenuates
FXR [2]; co-administration of stigmasterol with CDCA
  Effect on upregulation of SHP and FGF19 mRNA by CDCA: significantly reversed
FXR [2]; stigmasterol 100 μmol/L
  mRNA expressions of SHP and FGF19, stigmasterol alone: little affects

## C[C@H](CCC(=O)O)[C@H]1CC[C@H]2[C@@H]3[C@H](O)C[C@@H]4C[C@H](O)CC[C@]4(C)[C@H]3CC[C@]12C [CDCA, chenodeoxycholic acid]
OCT2 protein [3]; CDCA 25, 50, 100 μmol/L, bilirubin 10, 25, 50 μmol/L
  Concentration-dependent effect on expressions of OCT2: concentration-dependently increase
OCT2 protein [3]
  Expressions of OCT2 protein, 5 bile salts tested: remarkably induces
  Expressions of OCT2 protein by FXR agonists: induce expressions of OCT2 protein
OCT1 protein [4]
  Concentration-dependent effect on expressions of OCT1 protein: concentration-dependently downregulate
Oct1 protein [5]
  Expressions of Oct1 protein: downregulate expressions of Oct1 protein
Mate1
  Expressions of renal Mate1 protein in treated rats: unaltered
Oct2 protein [6]
  Expressions of Oct2 protein: upregulate expressions of Oct2 protein
OCT2 protein [7]
  Expressions of OCT2 protein by FXR agonists: increase expressions of OCT2 protein

## C[C@H](CCC(=O)O)[C@H]1CC[C@H]2[C@@H]3CC[C@@H]4C[C@H](O)CC[C@]4(C)[C@H]3C[C@H](O)[C@]12C [DCA, Eeoxycholic acid]
OCT2 protein [3]
  Expressions of OCT2 protein, 5 bile salts tested: only CDCA remarkably induces

## NCCc1ccc(O)c(O)c1 [dopamine]
Oct1; primary hepatocytes from BDL rats
  inhibition at 1.5 min, 20 μmol/L: 25.2%
Oct1; primary hepatocytes from Sham rats
  inhibition at 1.5 min, 20 μmol/L: 58.7%

## C[C@H](CCC(=O)O)[C@H]1CC[C@H]2[C@@H]3C[C@H](O)[C@@H]4C[C@H](O)CC[C@]4(C)[C@H]3CC[C@]12C [HDCA, Hyodeoxycholic acid]
OCT2 protein [3]
  Expressions of OCT2 protein, 5 bile salts tested: only CDCA remarkably induces

## CN(C)C(=N)N=C(N)N [metformin]
Rat kidney slices
  Uptake of metformin in renal slice, BDL vs Sham: significantly increases
[8]; CDCA-treated rats (Table S5)
  AUC: 906.85 ± 52.16 µg·min/mL
  Cmax: 4360 ± 380 ng/mL
[8]; [14]
  AUC: 707.20 ± 30.01 µg·min/mL
  Cmax: 3190 ± 120 ng/mL
BDL rat, same value as Sham
  V1: 102.99 mL
Sham rat, 250 g, estimated from original data
  V1: 102.99 ^j mL

## C=CC1=C(C)/C(=C/c2[nH]c(Cc3[nH]c(/C=C4\NC(=O)C(C)=C4C=C)c(C)c3CCC(=O)O)c(CCC(=O)O)c2C)NC1=O [bilirubin]
FXR protein
  Expressions of FXR protein: can induce
FXR [9]
  Expressions of SHP and FGF19 mRNA: significantly upregulate
OCT1 protein [4]
  Concentration-dependent effect on expressions of OCT1 protein: concentration-dependently downregulate
Oct1 protein [5]
  Expressions of Oct1 protein: downregulate expressions of Oct1 protein
Oct2 protein [6]
  Expressions of Oct2 protein: upregulate expressions of Oct2 protein
OCT2 protein [7]
  Expressions of OCT2 protein by FXR agonists: increase expressions of OCT2 protein

## C[C@]12CC[C@@H]3c4ccc(O)cc4CC[C@H]3[C@@H]1CC[C@@H]2O [estradiol]
Oct3
  Effect on Peff of metformin: does not affect

## C[C@]12C[C@H](O)[C@H]3[C@@H](CCC4=CC(=O)CC[C@@]43C)[C@@H]1CC[C@@H]2C(=O)CO [corticosterone]
Oct2/3 [10]; corticosterone 4 μmol/L with metformin 50 μg/mL
  Intestinal absorption (Peff) of metformin with inhibitor: 60 % of control rats
Oct2/3 [10]; corticosterone 4 μmol/L with thiamine 20 μg/mL
  Effect on Peff values of thiamine: significantly decrease
Oct2/3 [11]
  In vivo hepatic uptake clearance of metformin with corticosterone: 50 % of CON rats

## CC(C)c1onc(-c2c(Cl)cccc2Cl)c1COc1ccc(/C=C/c2cccc(C(=O)O)c2)c(Cl)c1 [GW4064]
OCT2 protein [3]
  Expressions of OCT2 protein by FXR agonists: induce expressions of OCT2 protein
OCT1 protein [4]; GW4064
  Expressions of OCT1 protein: also downregulates
Oct1 protein [5]
  Expressions of Oct1 protein: downregulate expressions of Oct1 protein
Oct2 protein [6]
  Expressions of Oct2 protein: upregulate expressions of Oct2 protein
OCT2 protein [7]
  Expressions of OCT2 protein by FXR agonists: increase expressions of OCT2 protein

## C[C@H](CCC(=O)NCC(=O)O)[C@H]1CC[C@H]2[C@@H]3[C@H](O)C[C@@H]4C[C@H](O)CC[C@]4(C)[C@H]3C[C@H](O)[C@]12C [GCA, Glycocholic acid]
OCT2 protein [3]
  Expressions of OCT2 protein, 5 bile salts tested: only CDCA remarkably induces

## Cc1ncc(C[n+]2csc(CCO)c2C)c(N)n1 [thiamine]
[12]
  Peff values of thiamine in BDL rats vs Sham: significantly decrease
[13]
  Urinary excreted amount of thiamine during 6 h, BDL relative to Sham: 187 % of Sham rats

## C[C@H](CCC(=O)O)[C@H]1CC[C@H]2[C@@H]3[C@H](O)C[C@@H]4C[C@H](O)CC[C@]4(C)[C@H]3C[C@H](O)[C@]12C [CA, Cholic acid]
OCT2 protein [3]
  Expressions of OCT2 protein, 5 bile salts tested: only CDCA remarkably induces

## C[C@H](CCC(=O)NCC(=O)O)[C@H]1CC[C@H]2[C@@H]3[C@@H](O)[C@@H](O)[C@@H]4C[C@H](O)CC[C@]4(C)[C@H]3CC[C@]12C [MCA, glycine-β-muricholic acid]
FXR [9]; MCA
  Expressions of FGF19 mRNA: slight inhibits
  Expressions of SHP mRNA: significantly downregulates
OCT2 protein [3]; MCA 100 μmol/L
  Effect on induction of OCT2 protein by bilirubin, CDCA and GW4064: remarkably attenuated
OCT1 protein [4]; MCA
  Effect on decreases in OCT1 by CDCA, bilirubin and GW4064: remarkably reversed
Oct1 protein [5]; MCA
  Effect on downregulation of Oct1 protein by CDCA, bilirubin and GW4064: remarkably attenuated
Oct2 protein [6]; MCA
  Effect on upregulation of Oct2 protein by CDCA, bilirubin and GW4064: remarkably attenuated
OCT2 protein [7]; MCA 100 μmol/L
  Effect on increase of OCT2 protein by CDCA, bilirubin and GW4064: reversed

Reference: publication PMC9939304 (Acta Pharmaceutica Sinica. B, 2022)
